pIC50: −log10 of the molar value. Where two headings read alike, the source gives them in different places.

In general, pIC50 refers to the negative decadic logarithm of the IC50, by convention in mol/L.

The target of one experiment is PI3Kα (Homo sapiens, UniProt P42336). Nature of the experiment: PI3K enzymatic activity assay (Kinase-Glo), PI3Kα. Format: biochemical. The procedure:
(§1) We assumed that electronic effects might influence the inhibitory activity of compounds against PI3Kα. […] PI3K reactions were performed in 50 mM HEPES at pH 7.5 with 1 mM EGTA, 100 mM NaCl, 3 mM MgCl2, 2 mM DTT, and 0.03% CHAPS. All tested compounds were dissolved in 100% DMSO. PIP2 and ATP were used as substrates, and the final reaction volume was 10 μL. […] After incubating for 1 h at room temperature, the reactions were quenched by adding 10 μL of Kinase-Glo reagent. Raw data were collected from Flexstation program.
A general note: Kinase-Glo measures the ATP left after a reaction by luminescence.

The subject of another experiment is MCF-7. The experiment is described as follows: Antiproliferative CCK8 assay, MCF-7. Format: cell-based. Particulars: Homo sapiens, MCF7, 72 h incubation, average of three replicates, read-out: Relative IC50 against tumor cell line MCF-7. The procedure:
(§2) The following cell lines, MCF-7, SK-BR-3, K562, Hela, MOLT-4, DU145, U937, and PC3 were purchased from Shanghai Cell Bank, Chinese Academy of Sciences. The cells were maintained at 37 °C in a 5% CO2 incubator in DMEM (Gibco, Invitrogen, Carlsbad, CA, USA) or RPMI1640 (Gibco, Invitrogen) containing 10% FBS. Cell proliferation was determined by CCK8 assay (DOjinDo, Kyoto, Japan). Cells were seeded at a density of 800–1000 cells/well in 384 well plates and treated with solvent control or various concentration of compounds. After 72 h incubation, CCK8 reagent was added and absorbance was measured at 450 nm by using Envision 2104 multi-label Reader (Perkin Elmer, Waltham, MA, USA). Dose-response curves were plotted to determine the IC50 values using Prism 5.0 (Graph Pad software Inc., San Diego, CA, USA).
(Tetrazolium dyes change colour on reduction, which living cells bring about.)

The subject of a further experiment is K562. Nature of the experiment: Antiproliferative CCK8 assay, K562. Format: cell-based. Particulars: Homo sapiens, 72 h incubation, average of three replicates, read-out: Relative IC50 against tumor cell line K562. As to the method: as §2
The test system of the next experiment is Hela. The experiment is described as follows: Antiproliferative CCK8 assay, Hela. Type of experiment: cell-based. Particulars: Homo sapiens, 72 h incubation, average of three replicates, read-out: Relative IC50 against tumor cell line Hela. The procedure: as §2
A further experiment deals with DU145. Nature of the experiment: Antiproliferative CCK8 assay, DU145. Format: cell-based. Particulars: Homo sapiens, DU-145, prostate cancer cell, 72 h incubation, average of three replicates, read-out: Relative IC50 against tumor cell line DU145. As to the method: as §2
A further experiment deals with MOLT-4. Nature of the experiment: Antiproliferative CCK8 assay, MOLT-4. Type of experiment: cell-based. Particulars: Homo sapiens, leukemia cell, 72 h incubation, average of three replicates, read-out: Relative IC50 against tumor cell line MOLT-4. The procedure:
as §2

The next experiment relates to SK-BR-3. Nature of the experiment: Antiproliferative CCK8 assay, SK-BR-3. Type of experiment: cell-based. Particulars: Homo sapiens, 72 h incubation, average of three replicates, read-out: Relative IC50 against tumor cell line SK-BR-3. The procedure: as §2
The subject of the next experiment is U937. Nature of the experiment: Antiproliferative CCK8 assay, U937. Format: cell-based. Particulars: Homo sapiens, U-937, leukemia cell, 72 h incubation, average of three replicates, read-out: Relative IC50 against tumor cell line U937. As to the method: as §2
A further experiment concerns PC3. Nature of the experiment: Antiproliferative CCK8 assay, PC3. Format: cell-based. Particulars: Homo sapiens, PC-3, 72 h incubation, average of three replicates, read-out: Relative IC50 against tumor cell line PC3. As to the method: as §2
The next experiment deals with PI3Kβ (Homo sapiens, UniProt P42338). The experiment is described as follows: PI3K enzymatic activity assay, PI3Kβ. Format: biochemical. The procedure: as §1
The target in the next experiment is PI3Kγ (Homo sapiens, UniProt P48736). The experiment is described as follows: PI3K enzymatic activity assay, PI3Kγ. Type of experiment: biochemical. The procedure: as §1
In the next experiment the target is PI3Kδ (Homo sapiens, UniProt O00329). Nature of the experiment: PI3K enzymatic activity assay, PI3Kδ. Format: biochemical. As to the method: as §1
The mark [1] stands for this setting: average of three replicates, 25 μM ATP, 50 μM PIP2, 1 h, room temperature, read-out: IC50, inhibition against PI3Kα.

Chain of PI3Kα (P42336 whole entry, species assumed): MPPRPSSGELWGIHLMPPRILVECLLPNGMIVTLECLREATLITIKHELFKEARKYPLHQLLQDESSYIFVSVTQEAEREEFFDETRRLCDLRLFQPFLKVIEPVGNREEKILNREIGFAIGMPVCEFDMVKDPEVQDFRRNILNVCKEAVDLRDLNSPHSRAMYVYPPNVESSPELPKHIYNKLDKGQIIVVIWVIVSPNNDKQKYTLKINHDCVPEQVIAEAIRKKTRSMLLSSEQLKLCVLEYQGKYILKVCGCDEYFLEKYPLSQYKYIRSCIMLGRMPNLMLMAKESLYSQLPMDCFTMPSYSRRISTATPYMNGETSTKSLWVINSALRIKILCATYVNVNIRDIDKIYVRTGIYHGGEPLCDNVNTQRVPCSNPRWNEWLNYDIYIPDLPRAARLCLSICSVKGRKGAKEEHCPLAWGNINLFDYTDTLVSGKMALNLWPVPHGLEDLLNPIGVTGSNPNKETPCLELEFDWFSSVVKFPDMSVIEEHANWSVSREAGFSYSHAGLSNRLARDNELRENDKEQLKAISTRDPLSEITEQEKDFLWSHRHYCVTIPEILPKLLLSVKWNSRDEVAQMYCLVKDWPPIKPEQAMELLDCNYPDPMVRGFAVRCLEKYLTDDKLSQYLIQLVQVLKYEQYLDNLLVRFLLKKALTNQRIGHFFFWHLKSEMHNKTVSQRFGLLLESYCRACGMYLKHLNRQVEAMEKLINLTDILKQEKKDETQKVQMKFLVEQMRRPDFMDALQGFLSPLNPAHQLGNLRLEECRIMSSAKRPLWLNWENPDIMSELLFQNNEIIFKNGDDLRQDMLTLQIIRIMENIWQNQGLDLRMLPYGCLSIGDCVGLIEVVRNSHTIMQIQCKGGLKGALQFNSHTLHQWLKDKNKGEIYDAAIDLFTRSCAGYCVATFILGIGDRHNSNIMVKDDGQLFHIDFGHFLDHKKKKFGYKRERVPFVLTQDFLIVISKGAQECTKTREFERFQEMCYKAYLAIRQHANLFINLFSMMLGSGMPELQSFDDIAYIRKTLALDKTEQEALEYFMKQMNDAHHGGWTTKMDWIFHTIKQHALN
Chain of PI3Kα (P27986 whole entry partner, species assumed): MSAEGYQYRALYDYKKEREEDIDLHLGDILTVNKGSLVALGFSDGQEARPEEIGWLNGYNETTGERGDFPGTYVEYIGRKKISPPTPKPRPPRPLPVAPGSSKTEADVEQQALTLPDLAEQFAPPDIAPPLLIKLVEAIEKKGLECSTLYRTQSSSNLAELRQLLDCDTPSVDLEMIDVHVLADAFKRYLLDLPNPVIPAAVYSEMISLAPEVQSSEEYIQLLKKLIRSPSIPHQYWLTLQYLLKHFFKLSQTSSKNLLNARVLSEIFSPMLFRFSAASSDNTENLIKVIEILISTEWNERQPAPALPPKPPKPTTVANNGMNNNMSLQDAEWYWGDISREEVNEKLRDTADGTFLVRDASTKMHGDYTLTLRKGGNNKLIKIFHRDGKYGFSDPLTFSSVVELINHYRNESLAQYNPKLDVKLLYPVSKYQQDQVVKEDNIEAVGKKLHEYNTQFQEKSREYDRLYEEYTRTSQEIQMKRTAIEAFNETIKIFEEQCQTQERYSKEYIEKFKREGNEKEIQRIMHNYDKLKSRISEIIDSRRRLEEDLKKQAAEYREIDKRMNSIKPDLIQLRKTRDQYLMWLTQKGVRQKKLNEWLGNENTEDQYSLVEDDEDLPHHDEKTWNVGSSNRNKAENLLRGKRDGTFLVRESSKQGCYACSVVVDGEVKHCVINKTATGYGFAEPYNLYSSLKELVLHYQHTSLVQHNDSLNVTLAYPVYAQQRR
Chain of PI3Kβ (P42338 whole entry, species assumed): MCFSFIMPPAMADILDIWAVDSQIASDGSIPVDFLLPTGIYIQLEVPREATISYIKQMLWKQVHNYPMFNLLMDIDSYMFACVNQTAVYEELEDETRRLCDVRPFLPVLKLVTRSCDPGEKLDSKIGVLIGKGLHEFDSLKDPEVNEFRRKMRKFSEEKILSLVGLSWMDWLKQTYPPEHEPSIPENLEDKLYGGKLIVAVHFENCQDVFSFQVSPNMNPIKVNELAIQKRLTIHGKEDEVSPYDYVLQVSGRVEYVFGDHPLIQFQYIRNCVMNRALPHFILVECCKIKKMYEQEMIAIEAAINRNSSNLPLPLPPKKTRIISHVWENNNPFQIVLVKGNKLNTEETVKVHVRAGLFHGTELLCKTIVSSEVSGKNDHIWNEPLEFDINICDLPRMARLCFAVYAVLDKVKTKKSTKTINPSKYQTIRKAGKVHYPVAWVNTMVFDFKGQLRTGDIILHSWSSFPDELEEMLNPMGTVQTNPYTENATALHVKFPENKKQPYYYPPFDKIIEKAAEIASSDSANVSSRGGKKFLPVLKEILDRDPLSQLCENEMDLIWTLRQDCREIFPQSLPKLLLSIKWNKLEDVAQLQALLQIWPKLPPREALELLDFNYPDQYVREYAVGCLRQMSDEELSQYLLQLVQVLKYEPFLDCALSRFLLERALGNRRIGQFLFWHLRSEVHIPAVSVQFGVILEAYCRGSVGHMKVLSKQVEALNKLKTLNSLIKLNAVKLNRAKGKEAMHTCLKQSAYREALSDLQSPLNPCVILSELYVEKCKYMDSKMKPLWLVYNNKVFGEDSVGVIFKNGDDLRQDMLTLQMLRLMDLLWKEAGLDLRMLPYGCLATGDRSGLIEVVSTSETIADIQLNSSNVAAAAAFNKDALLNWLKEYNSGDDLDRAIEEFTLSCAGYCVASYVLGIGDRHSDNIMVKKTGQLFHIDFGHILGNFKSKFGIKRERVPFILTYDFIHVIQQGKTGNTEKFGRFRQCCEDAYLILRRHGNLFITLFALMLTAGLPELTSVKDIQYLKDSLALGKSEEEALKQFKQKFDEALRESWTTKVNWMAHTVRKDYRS
Chain of PI3Kβ (P27986 whole entry partner, species assumed): as the sequence (P27986 whole entry partner, species assumed) above
Chain of PI3Kγ (P48736 whole entry, species assumed): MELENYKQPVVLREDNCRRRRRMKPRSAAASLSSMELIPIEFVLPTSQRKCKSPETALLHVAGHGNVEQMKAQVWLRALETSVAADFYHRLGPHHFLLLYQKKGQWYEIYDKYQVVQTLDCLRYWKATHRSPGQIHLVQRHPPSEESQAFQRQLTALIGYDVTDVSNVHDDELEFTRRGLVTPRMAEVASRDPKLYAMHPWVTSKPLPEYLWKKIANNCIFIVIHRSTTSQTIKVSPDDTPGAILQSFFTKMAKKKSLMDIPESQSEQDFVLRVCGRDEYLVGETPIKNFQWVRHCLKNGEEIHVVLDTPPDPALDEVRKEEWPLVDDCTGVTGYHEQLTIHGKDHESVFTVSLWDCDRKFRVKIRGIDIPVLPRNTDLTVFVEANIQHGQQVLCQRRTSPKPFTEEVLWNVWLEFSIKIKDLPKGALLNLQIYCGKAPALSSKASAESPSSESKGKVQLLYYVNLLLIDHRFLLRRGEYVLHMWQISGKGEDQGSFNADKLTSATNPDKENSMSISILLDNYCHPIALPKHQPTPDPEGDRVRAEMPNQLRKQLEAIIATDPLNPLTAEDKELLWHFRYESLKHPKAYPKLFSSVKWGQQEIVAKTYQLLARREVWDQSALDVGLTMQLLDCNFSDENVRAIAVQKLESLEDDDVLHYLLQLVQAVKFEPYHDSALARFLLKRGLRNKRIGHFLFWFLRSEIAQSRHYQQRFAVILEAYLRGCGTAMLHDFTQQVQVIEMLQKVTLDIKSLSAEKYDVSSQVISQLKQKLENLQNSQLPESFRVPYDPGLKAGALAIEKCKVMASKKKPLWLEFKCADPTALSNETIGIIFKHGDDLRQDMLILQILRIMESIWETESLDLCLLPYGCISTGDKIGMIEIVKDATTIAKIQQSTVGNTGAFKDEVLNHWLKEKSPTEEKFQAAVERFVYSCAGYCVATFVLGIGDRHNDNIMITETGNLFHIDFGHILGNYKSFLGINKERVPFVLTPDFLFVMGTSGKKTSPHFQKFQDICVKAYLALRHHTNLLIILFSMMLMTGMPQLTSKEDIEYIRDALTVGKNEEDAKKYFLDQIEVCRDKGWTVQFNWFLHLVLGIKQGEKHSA
Chain of PI3Kδ (O00329 whole entry, species assumed): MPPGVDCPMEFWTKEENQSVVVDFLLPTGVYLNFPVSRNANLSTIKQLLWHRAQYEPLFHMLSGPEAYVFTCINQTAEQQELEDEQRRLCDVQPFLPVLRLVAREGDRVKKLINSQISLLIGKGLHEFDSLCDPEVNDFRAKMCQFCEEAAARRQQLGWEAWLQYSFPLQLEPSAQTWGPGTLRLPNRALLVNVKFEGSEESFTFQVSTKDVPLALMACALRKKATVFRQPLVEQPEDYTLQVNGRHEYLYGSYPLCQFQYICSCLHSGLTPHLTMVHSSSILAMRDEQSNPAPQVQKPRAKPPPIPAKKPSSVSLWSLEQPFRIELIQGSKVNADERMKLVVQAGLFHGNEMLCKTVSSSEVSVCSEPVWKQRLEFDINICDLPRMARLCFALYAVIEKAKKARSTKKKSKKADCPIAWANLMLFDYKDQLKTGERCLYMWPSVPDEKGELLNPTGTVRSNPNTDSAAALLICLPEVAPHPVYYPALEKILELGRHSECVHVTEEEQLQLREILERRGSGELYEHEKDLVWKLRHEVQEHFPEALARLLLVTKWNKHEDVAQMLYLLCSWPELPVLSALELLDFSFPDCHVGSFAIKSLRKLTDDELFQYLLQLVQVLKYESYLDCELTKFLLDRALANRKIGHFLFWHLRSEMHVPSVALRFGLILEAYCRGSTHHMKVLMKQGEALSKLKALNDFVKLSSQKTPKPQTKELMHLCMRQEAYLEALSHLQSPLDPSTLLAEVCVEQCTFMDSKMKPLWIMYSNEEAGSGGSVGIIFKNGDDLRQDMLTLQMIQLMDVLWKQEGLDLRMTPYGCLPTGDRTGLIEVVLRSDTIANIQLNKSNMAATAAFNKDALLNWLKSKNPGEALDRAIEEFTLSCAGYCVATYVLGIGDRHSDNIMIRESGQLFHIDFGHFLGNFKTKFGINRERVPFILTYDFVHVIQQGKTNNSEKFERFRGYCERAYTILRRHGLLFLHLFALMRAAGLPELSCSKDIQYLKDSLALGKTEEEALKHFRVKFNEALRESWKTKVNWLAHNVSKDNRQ
Chain of PI3Kδ (P27986 whole entry partner, species assumed): as the sequence (P27986 whole entry partner, species assumed) above

On to `COC(=O)c1cc(O)c(O)c2c1[C@]1(C)CC[C@H]3C(C)(C)CCC[C@]3(C)[C@H]1C2` [Compound 1, Pelorol], for which the negative logarithm of the IC50 (pIC50) at PI3Kα is 4.42; with MCF-7 it was below 4.52; in the experiment with K562 it was below 4.52; in the experiment with Hela it was below 4.52; in the experiment with DU145, 4.14; in the experiment with MOLT-4 it was below 4.52. Moreover, the pIC50 with SK-BR-3, with U937 and in the experiment on PC3 was below 4.52 throughout.
`CC1(C)CCC[C@]2(C)[C@H]3Cc4c(O)c(O)cc(C(=O)O)c4[C@]3(C)CC[C@@H]12` [Compound 2, (4aS,6aR,11aR,11bS)-9,10-diHydroxy-4,4,6a,11b-tetramethyl-2,3,4,4a,5,6,6a,11,11a,11b-decahydro-1H-benzo[a]fluorene-7-carboxylic acid]: the negative logarithm of the IC50 (pIC50) on PI3Kα (setting [1]) is 4.68; in the experiment with MCF-7, below 4.52; with K562, below 4.52; with DU145 it was below 4.52; in the experiment on PC3 it was below 4.52.
As for `CC(=O)c1cc(O)c(O)c2c1[C@]1(C)CC[C@H]3C(C)(C)CCC[C@]3(C)[C@H]1C2` [Compound 3, 1-((4aS,6aR,11aR,11bS)-9,10-diHydroxy-4,4,6a,11b-tetramethyl-2,3,4,4a,5,6,6a,11,11a,11b-decahydro-1H-benzo[a]fluoren-7-yl)ethanone], the negative logarithm of the IC50 (pIC50) on PI3Kα (setting [1]) is 5.06; in the experiment with MCF-7, below 4.52; in the experiment on K562, below 4.52; in the experiment with Hela it was below 4.52; in the experiment on DU145, below 4.52; in the experiment with MOLT-4, 4.65. In addition, the negative-log IC50 (pIC50) in the experiment on SK-BR-3, in the experiment on U937 and with PC3 was below 4.52 each time.
Consider `CCc1cc(O)c(O)c2c1[C@]1(C)CC[C@H]3C(C)(C)CCC[C@]3(C)[C@H]1C2` [Compound 4, (4aS,6aR,11aR,11bS)-7-Ethyl-4,4,6a,11b-tetramethyl-2,3,4,4a,5,6,6a,11,11a,11b-decahydro-1H-benzo [a]fluorene-9,10-diol], for which the pIC50 is 4.08 at PI3Kα (setting [1]); below 4.52 in the experiment with MCF-7; below 4.52 with K562; below 4.52 in the experiment on Hela; below 4.52 in the experiment on DU145; below 4.52 in the experiment on MOLT-4. Further, the pIC50 in the experiment with SK-BR-3, with U937 and in the experiment with PC3 was below 4.52 throughout.
For `CC1(C)CCC[C@]2(C)[C@H]3Cc4c(O)c(O)cc(C=O)c4[C@]3(C)CC[C@@H]12` [Compound 5, (4aS,6aR,11aR,11bS)-9,10-diHydroxy-4,4,6a,11b-tetramethyl-2,3,4,4a,5,6,6a,11,11a,11b-decahydro-1H-benzo[a]fluorene-7-carbaldehyde], the negative-log IC50 (pIC50) on PI3Kα (setting [1]) is 5.30; on PI3Kβ it was 5.05; on PI3Kγ, below 4.00; against PI3Kδ it was below 4.00; in the experiment with MCF-7, 4.41; with K562 it was 4.79. Besides, the pIC50 is 4.88 with Hela; 5.05 in the experiment with DU145; 5.37 with MOLT-4; 4.72 with SK-BR-3; 5.22 in the experiment with U937; 4.74 in the experiment with PC3.
For the molecule `CC1(C)CCC[C@]2(C)[C@H]3Cc4c(O)c(O)cc(C#N)c4[C@]3(C)CC[C@@H]12` [Compound 6, (4aS,6aR,11aR,11bS)-9,10-diHydroxy-4,4,6a,11b-tetramethyl-2,3,4,4a,5,6,6a,11,11a,11b-decahydro-1H-benzo[a]fluorene-7-carbonitrile], the negative-log IC50 (pIC50) on PI3Kα (setting [1]) was 4.31; in the experiment with MCF-7, 4.78; in the experiment with K562 it was below 4.52; in the experiment with Hela, 4.92; in the experiment on DU145 it was 5.09; in the experiment with MOLT-4 it was 5.54. The pIC50 with SK-BR-3 was below 4.52; with U937 it was 4.89; in the experiment on PC3 it was below 4.52.
For `CCc1cc(OC)c(OC)c2c1[C@]1(C)CC[C@H]3C(C)(C)CCC[C@]3(C)[C@H]1C2` [Compound 20, (4aS,6aR,11aR,11bS)-7-Ethyl-9,10-diMethoxy-4,4,6a,11b-tetramethyl-2,3,4,4a,5,6,6a,11,11a,11b-decahydro-1H-benzo[a]fluorene], the negative logarithm of the IC50 (pIC50) at PI3Kα (setting [1]) was below 4.00.
